Common to all, as to format: cell-based
Experiment [1] has as its target T1, CK1α (Homo sapiens, UniProt P48729+Q96SW2). The experiment in a line: CK1α degradation, Jess assay in MV-4-11 cells. Also on record: CK1α levels were determined in MV-4-11 cells using Jess (Protein Simple); host or cells: MV-4-11; dose or concentration left out as unconfirmed. As to conditions: MV4-11, % reduction of CK1α compared to DMSO, MV-4-11 cells for 16 hours, normalized to β-actin, read-out: CK1α degradation classification. As to the method: MM.1S and NCCIT cells were obtained from ATCC and grown in RPMI-1640 supplemented with 10% FBS. MV-4-11 cells were obtained from ATCC and grown in IMDM supplemented with 10% FBS. The cells were maintained at 37° C. under 5% CO2.
Compounds of the present disclosure was added to cells (final DMSO concentration of 0.1%) and incubated for 16 hours. CK1α levels were determined in MV-4-11 cells using Jess (Protein Simple). Briefly, whole cell lysates were prepared in lysis buffer (1×RIPA buffer [Thermo, 89900], 2 mM MgCl2 [Sigma, M1028], 0.05% Benzonase [Sigma, E1014], 1× Pierce protease inhibitor tablets EDTA-free [Thermo, A32965]). 6-20 μg of the lysates were analyzed using Jess with antibodies against CK1α (Abcam, ab108296) and β-actin (R&D Systems, MAB8929). Protein levels were normalized to β-actin levels. DC50 values were obtained using four-parameter non-linear regressions using Prism (GraphPad).
The efficacy of CK1α degradation of a part of compounds of the present disclosure was determined by treating MV-4-11 cells at […] (final DMSO concentration of 0.1%) for 16 hours. CK1α levels were determined using Jess and normalized to β-actin levels. The compounds are classified based on amount of CK1α degradation (% reduction of CK1α compared to DMSO) as follows. • A: Degradation is greater than or equal to 75%; • B: Degradation is less than […] & greater than or equal to 50%; • C: Degradation is less than […]; • ND: not determined.

For a further experiment, the system named is MV-4-11 cells. The experiment in a line: AML cell viability assay (RealTime-Glo). Particulars: Homo sapiens, read-out: Cell viability classification.
For experiment [2], the target named is T1, CK1α. The experiment in a line: CK1α HiBiT assay in CK1a_HiBiT_Jurkat cells. As to conditions: DC50 class, 16 hours, Nano-Glo HiBiT Lytic Detection, read-out: CK1α degradation classification. In outline: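 Compounds given to 30,000 CK1a_HiBiT_Jurkat cells as 9-point half-log series from […] top, 0.5% DMSO, 16 hours. CK1α level read by Nano-Glo HiBiT lytic luminescence, normalized to DMSO; DC50 from three-parameter nonlinear regression, binned A (≤1×10^−7), B (>1×10^−7 to ≤1×10^−6), C (>1×10^−6), NA (<25% reduction at 1 uM).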
For orientation: HiBiT is a short tag that completes a luciferase, so light tracks the accessible tagged protein.

[3] abbreviates: MV4-11, IC50 class, MV-4-11 cells, RealTime-Glo after 44 hrs of treatment (TABLE 1).
The mark [4] stands for this setting: MV4-11, IC50 class, MV-4-11 cells, RealTime-Glo after 44 hrs of treatment (TABLE 5).

Molecules are shown by their SMILES. Where a name gives a salt, the structure may show the parent alone. Read-outs that look alike come from different tables or passages of the source.

T1 sequence (P48729 whole entry): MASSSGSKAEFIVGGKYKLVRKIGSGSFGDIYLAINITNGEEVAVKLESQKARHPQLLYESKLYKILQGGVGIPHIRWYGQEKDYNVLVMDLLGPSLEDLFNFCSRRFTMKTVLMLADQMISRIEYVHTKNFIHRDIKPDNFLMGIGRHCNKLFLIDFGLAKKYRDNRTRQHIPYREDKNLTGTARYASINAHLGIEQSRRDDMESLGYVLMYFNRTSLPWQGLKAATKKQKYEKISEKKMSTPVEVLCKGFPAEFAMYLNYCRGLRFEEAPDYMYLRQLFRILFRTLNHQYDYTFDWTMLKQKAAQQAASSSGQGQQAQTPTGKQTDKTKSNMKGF
T1 sequence (Q96SW2 whole entry): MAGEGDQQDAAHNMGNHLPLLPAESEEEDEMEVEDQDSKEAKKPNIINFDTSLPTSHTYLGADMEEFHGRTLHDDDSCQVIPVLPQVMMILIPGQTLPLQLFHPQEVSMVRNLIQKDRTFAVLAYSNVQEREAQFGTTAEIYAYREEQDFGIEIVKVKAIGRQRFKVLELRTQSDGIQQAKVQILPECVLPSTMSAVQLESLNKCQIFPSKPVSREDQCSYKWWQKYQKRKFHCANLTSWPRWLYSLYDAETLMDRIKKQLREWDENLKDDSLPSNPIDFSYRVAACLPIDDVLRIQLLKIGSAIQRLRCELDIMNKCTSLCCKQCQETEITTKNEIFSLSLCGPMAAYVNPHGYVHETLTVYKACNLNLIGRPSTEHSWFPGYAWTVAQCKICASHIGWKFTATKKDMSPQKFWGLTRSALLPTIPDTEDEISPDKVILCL
T1 sequence (Q16531 whole entry partner): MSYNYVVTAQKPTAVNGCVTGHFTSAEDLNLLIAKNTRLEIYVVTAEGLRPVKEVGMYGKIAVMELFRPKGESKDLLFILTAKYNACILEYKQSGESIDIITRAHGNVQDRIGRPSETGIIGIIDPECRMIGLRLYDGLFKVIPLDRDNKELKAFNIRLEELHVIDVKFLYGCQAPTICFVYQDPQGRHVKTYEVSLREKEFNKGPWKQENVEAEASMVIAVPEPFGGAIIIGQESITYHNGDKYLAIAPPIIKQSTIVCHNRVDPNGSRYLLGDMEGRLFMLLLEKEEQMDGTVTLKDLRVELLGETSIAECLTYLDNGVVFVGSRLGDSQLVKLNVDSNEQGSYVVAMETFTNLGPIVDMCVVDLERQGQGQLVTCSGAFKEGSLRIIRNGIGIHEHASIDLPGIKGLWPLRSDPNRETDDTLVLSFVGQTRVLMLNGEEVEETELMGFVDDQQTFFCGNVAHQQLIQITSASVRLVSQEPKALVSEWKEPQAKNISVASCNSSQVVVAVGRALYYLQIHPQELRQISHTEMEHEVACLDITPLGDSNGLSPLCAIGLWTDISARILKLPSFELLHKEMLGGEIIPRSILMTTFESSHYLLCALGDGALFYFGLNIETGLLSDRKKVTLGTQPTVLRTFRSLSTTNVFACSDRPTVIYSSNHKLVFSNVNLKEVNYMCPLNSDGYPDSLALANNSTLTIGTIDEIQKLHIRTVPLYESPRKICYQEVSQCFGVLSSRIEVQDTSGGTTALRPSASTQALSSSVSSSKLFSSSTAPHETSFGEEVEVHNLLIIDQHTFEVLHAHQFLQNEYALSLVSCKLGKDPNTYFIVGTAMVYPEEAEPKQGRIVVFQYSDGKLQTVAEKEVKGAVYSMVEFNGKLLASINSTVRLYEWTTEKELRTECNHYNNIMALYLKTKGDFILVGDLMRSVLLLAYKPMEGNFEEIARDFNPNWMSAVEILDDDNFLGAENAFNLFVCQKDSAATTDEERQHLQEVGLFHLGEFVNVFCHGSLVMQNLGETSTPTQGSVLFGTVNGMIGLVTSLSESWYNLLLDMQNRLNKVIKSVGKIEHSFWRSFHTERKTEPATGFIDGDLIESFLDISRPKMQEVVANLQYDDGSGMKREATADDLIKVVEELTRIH

For `CCCN(CCCCN)c1cccc2c1CN(C1CCC(=O)NC1=O)C2=O` (centres unmarked) [Compound 4, 3-(4-((4-aminobutyl)(propyl)amino)-1-oxoisoindolin-2-yl)piperidine-2,6-dione], the Dmax at CK1α [1] was above 75%. In addition, the IC50 in the experiment on MV-4-11 cells (setting [3]) is below 100 nM.
The corresponding values for `CCCCN(CCCCN)c1cccc2c1CN(C1CCC(=O)NC1=O)C2=O` (centres unmarked) [Compound 46, 3-(4-((4-aminobutyl)(butyl)amino)-1-oxoisoindolin-2-yl)piperidine-2,6-dione] are above 75% and below 100 nM.
For the molecule `CCCCCN(CCCCN)c1cccc2c1CN(C1CCC(=O)NC1=O)C2=O` (centres unmarked) [Compound 47, 3-(4-((4-aminobutyl)(pentyl)amino)-1-oxoisoindolin-2-yl)piperidine-2,6-dione], the Dmax on CK1α [1] was above 75%. Further, the IC50 in the experiment on MV-4-11 cells (MV4-11, 44 h) was below 100 nM.
As for `CCCCCCN(CCCCN)c1cccc2c1CN(C1CCC(=O)NC1=O)C2=O` (centres unmarked) [Compound 48, 3-(4-((4-aminobutyl)(hexyl)amino)-1-oxoisoindolin-2-yl)piperidine-2,6-dione], the Dmax at CK1α [1] was above 75%. In the experiment on MV-4-11 cells (setting [3]), the IC50 was below 100 nM.
The corresponding values for `CCCN(CCCCNC(C)=O)c1cccc2c1CN(C1CCC(=O)NC1=O)C2=O` (centres unmarked) [Compound 50, N-(4-((2-(2,6-dioxopiperidin-3-yl)-1-oxoisoindolin-4-yl)(propyl)amino)butyl)acetamide] are above 75% and below 100 nM.
Regarding `NCCCCN(CCCCCO)c1cccc2c1CN(C1CCC(=O)NC1=O)C2=O` (centres unmarked) [Compound 51, 3-(4-((4-aminobutyl)(5-hydroxypentyl)amino)-1-oxoisoindolin-2-yl)piperidine-2,6-dione], the Dmax at CK1α [1] fell in the range of 50 to 7500%. In addition, the IC50 with MV-4-11 cells (setting [3]) was 100 to 1000 nM.
The corresponding values for `CC(C)CCCCCN(CCCCN)c1cccc2c1CN(C1CCC(=O)NC1=O)C2=O` (centres unmarked) [Compound 52, 3-(4-((4-aminobutyl)(6-methylheptyl)amino)-1-oxoisoindolin-2-yl)piperidine-2,6-dione] are above 75% and 100 to 1000 nM.
Turning to `NCCCCCN(CCCCN)c1cccc2c1CN(C1CCC(=O)NC1=O)C2=O` (centres unmarked) [Compound 55, 3-(4-((4-aminobutyl)(5-aminopentyl)amino)-1-oxoisoindolin-2-yl)piperidine-2,6-dione dihydrochloride], the Dmax at CK1α [1] was above 75%. Besides, the IC50 with MV-4-11 cells (setting [3]) lay in the range of 100 to 1000 nM.
On the same counts, the results for `NCCCCN(CCCCCCO)c1cccc2c1CN(C1CCC(=O)NC1=O)C2=O` (centres unmarked) [Compound 56, 3-(4-((4-aminobutyl)(6-hydroxyhexyl)amino)-1-oxoisoindolin-2-yl)piperidine-2,6-dione] are 50 to 7500% and 100 to 1000 nM.
The corresponding values for `CCCN(CCCCCN)c1cccc2c1CN(C1CCC(=O)NC1=O)C2=O` (centres unmarked) [Compound 57, 3-(4-((5-aminopentyl)(propyl)amino)-1-oxoisoindolin-2-yl)piperidine-2,6-dione] are above 75% and below 100 nM.
On the same counts, the results for `NCCCCCCN(CCCCN)c1cccc2c1CN(C1CCC(=O)NC1=O)C2=O` (centres unmarked) [Compound 60, 3-(4-((4-aminobutyl)(6-aminohexyl)amino)-1-oxoisoindolin-2-yl)piperidine-2,6-dione] are above 75% and below 100 nM.
In the case of `CCCN(CCCCC(=O)NC)c1cccc2c1CN(C1CCC(=O)NC1=O)C2=O` (centres unmarked) [Compound 63, 5-((2-(2,6-dioxopiperidin-3-yl)-1-oxoisoindolin-4-yl)(propyl)amino)-N-methylpentanamide], on CK1α [1], the Dmax was above 75%. Besides, the IC50 in the experiment with MV-4-11 cells (setting [3]) was below 100 nM.
For the molecule `CCCCN(C/C=C/CN)c1cccc2c1CN(C1CCC(=O)NC1=O)C2=O` (centres unmarked) [Compound 66, (E)-3-(4-((4-aminobut-2-en-1-yl)(butyl)amino)-1-oxoisoindolin-2-yl)piperidine-2,6-dione], the Dmax at CK1α [1] lay within 50 to 7500%. Further, the IC50 in the experiment with MV-4-11 cells (setting [3]) fell in the range of 100 to 1000 nM.
`CCCCN(C/C=C\CN)c1cccc2c1CN(C1CCC(=O)NC1=O)C2=O` (centres unmarked) [Compound 67, (Z)-3-(4-((4-aminobut-2-en-1-yl)(butyl)amino)-1-oxoisoindolin-2-yl)piperidine-2,6-dione]: the Dmax at CK1α [1] is above 75%. Also, the IC50 with MV-4-11 cells (setting [3]) was below 100 nM.
On the same counts, the results for `C/C=C/CN(CCCCN)c1cccc2c1CN(C1CCC(=O)NC1=O)C2=O` (centres unmarked) [Compound 68, (E)-3-(4-((4-aminobutyl)(but-2-en-1-yl)amino)-1-oxoisoindolin-2-yl)piperidine-2,6-dione] are above 75% and below 100 nM.
`C/C=C\CN(CCCCN)c1cccc2c1CN(C1CCC(=O)NC1=O)C2=O` (centres unmarked) [Compound 69, (Z)-3-(4-((4-aminobutyl)(but-2-en-1-yl)amino)-1-oxoisoindolin-2-yl)piperidine-2,6-dione]: the Dmax at CK1α [1] was in the range of 50 to 7500%. For the same molecule, the IC50 with MV-4-11 cells (setting [3]) lay within 100 to 1000 nM.
The corresponding values for `CCCCCN(CCCCNC)c1cccc2c1CN(C1CCC(=O)NC1=O)C2=O` (centres unmarked) [Compound 80, 3-(4-((4-(methylamino)butyl)(pentyl)amino)-1-oxoisoindolin-2-yl)piperidine-2,6-dione.Hydrochloride] are above 75% and below 100 nM.
Take `CCCCCN(CCCCNC(C)=O)c1cccc2c1CN(C1CCC(=O)NC1=O)C2=O` (centres unmarked) [Compound 82, N-(4-((2-(2,6-dioxopiperidin-3-yl)-1-oxoisoindolin-4-yl)(pentyl)amino)butyl)acetamide]: the Dmax on CK1α [1] was 50 to 7500%. For the same molecule, the IC50 with MV-4-11 cells (setting [3]) is below 100 nM.
On to `CCCCCN(c1cccc2c1CN(C1CCC(=O)NC1=O)C2=O)[C@H]1CC[C@@H](N)CC1` (stereo partly drawn) [Compound 87, 3-(4-(((1S,4S)-4-aminocyclohexyl)(pentyl)amino)-1-oxoisoindolin-2-yl)piperidine-2,6-dione hydrochloride], for which, at CK1α [1], the Dmax is above 75%. Also, the IC50 with MV-4-11 cells (setting [3]) is below 100 nM.
`CCCCCN(c1cccc2c1CN(C1CCC(=O)NC1=O)C2=O)[C@H]1CC[C@H](N)CC1` (some centres unmarked) [Compound 88, 3-(4-(((1r,4r)-4-aminocyclohexyl)(pentyl)amino)-1-oxoisoindolin-2-yl)piperidine-2,6-dione, HCl]: at CK1α [1], the Dmax was above 75%. Moreover, the IC50 with MV-4-11 cells (setting [3]) is below 100 nM.
For the molecule `CN(CCCC(F)(F)F)[C@H]1CC[C@H](N(CCC2CC2)c2cccc3c2CN(C2CCC(=O)NC2=O)C3=O)CC1` (some centres unmarked) [Compound 681, 3-{4-[(2-cyclopropylethyl)[(1r,4r)-4-[methyl(4,4,4-trifluorobutyl)amino]cyclohexyl]amino]-1-oxo-3H-isoindol-2-yl}piperidine-2,6-dione], the IC50 in the experiment on MV-4-11 cells (setting [4]) is below 100 nM. In addition, the DC50 on CK1α [2] is at most 100 nM.
The corresponding values for `CN(CCC(F)(F)F)[C@H]1CC[C@H](N(CCC2CC2)c2cccc3c2CN(C2CCC(=O)NC2=O)C3=O)CC1` (some centres unmarked) [Compound 682] are below 100 nM and at most 100 nM.
For `CN(CCC(F)F)[C@H]1CC[C@H](N(CCC2CC2)c2cccc3c2CN(C2CCC(=O)NC2=O)C3=O)CC1` (some centres unmarked) [Compound 683, 3-(4-((2-cyclopropylethyl)((1r,4r)-4-((3,3-difluoropropyl)(methyl)amino)cyclohexyl)amino)-1-oxoisoindolin-2-yl)piperidine-2,6-dione tris(2,2,2-trifluoroacetate)], the IC50 with MV-4-11 cells (setting [4]) is below 100 nM. Besides, at CK1α [2], the DC50 is at most 100 nM.
The corresponding values for `O=C1CCC(N2Cc3c(cccc3N(CCC3CC3)C34CC(CNCCC(F)(F)F)(C3)C4)C2=O)C(=O)N1` (centres unmarked) [Compound 703, 3-{4-[(2-cyclopropylethyl)(3-{[(3,3,3-trifluoropropyl)amino]methyl}bicyclo[1.1.1]pentan-1-yl)amino]-1-oxo-3H-isoindol-2-yl}piperidine-2,6-dione] are 100 to 1000 nM and at most 100 nM.
The corresponding values for `O=C1CCC(N2Cc3c(cccc3N(CCC3CC3)[C@H]3CC[C@H](N4CCC(F)(F)CC4)CC3)C2=O)C(=O)N1` (some centres unmarked) [Compound 716, 3-(4-((2-cyclopropylethyl)((1r,4r)-4-(4,4-difluoropiperidin-1-yl)cyclohexyl)amino)-1-oxoisoindolin-2-yl)piperidine-2,6-dione 2,2,2-trifluoroacetate] are 100 to 1000 nM and at most 100 nM.

The values are drawn from patent US20250188069A1, “COMPOUNDS AND METHODS FOR DEGRADING CASEIN KINASE 1 ALPHA” (PIN THERAPEUTICS, INC., priority 2022, published 2025).
